Test results reported in patent US12023360B2, “Composition and methods of screening” (OPTIBIOTIX LIMITED, priority 2013, dated 2024).

Assays:
Format in all cases: cell-based
Bifidobacteria = test: Anaerobic culture utilisation, FISH enumeration at 24 h: Bifidobacteria; conditions: inoculum 6.85
Method: (§1) In these experiments, anaerobic cultures were tested to evaluate the in vitro utilisation of a novel Lactobacillus reuteri galactooligosaccharide by monitoring the populations of gut bacterial groups at 24 hours using fluorescent in situ hybridisation, and short-chain fatty acid (SCFA). Fructooligosaccharides (FOS), melibiose and raffinose were used as reference carbohydrates.

Bacteroides = test: Anaerobic culture utilisation, FISH enumeration at 24 h: Bacteroides; conditions: inoculum 7.98
Method: as §1

Lactobacilli = test: Anaerobic culture utilisation, FISH enumeration at 24 h: Lactobacilli; conditions: inoculum 7.15
Method: as §1

Clostridia = test: Anaerobic culture utilisation, FISH enumeration at 24 h: Clostridia; conditions: inoculum 7.55
Method: as §1

E. coli = test: Anaerobic culture utilisation, FISH enumeration at 24 h: E. coli; conditions: inoculum 8.14
Method: as §1

Eubacteria = test: Anaerobic culture utilisation, FISH enumeration at 24 h: Eubacteria; conditions: inoculum 8.06
Method: as §1

OC[C@H]1O[C@H](OCC2O[C@@H](O)[C@H](O)[C@@H](O)[C@@H]2O)[C@H](O)[C@@H](O)[C@H]1O (stereo partly shown) [Melibiose, melibiose]
Bifidobacteria, 24 (Bifidobacteria): 7.33 | Bacteroides, 24 (Bacteroides): 7.9 | Lactobacilli, 24 (Lactobacilli): 7.43 | Clostridia, 24 (Clostridia): 7.65 | E. coli, 24 (E. coli): 7.66 | Eubacteria, 24 (Eubacteria): 7.84

OC[C@H]1O[C@H](OC[C@H]2O[C@H](O[C@]3(CO)O[C@H](CO)[C@@H](O)[C@@H]3O)[C@H](O)[C@@H](O)[C@@H]2O)[C@H](O)[C@@H](O)[C@H]1O [Raffinose, raffinose]
Clostridia, 24 (Clostridia): 7.81
